Test results as given in US20130209581A1, “IODINATED ACTIVATED CHARCOAL FOR TREATING SYMPTOMS OF DEPRESSION” (priority 2010, published 2013).

Columns and labels:
[1] = tested on: symptoms caused by depression; experiment: Self-administration of iodinated activated charcoal and its separate components by one patient with long-standing depression symptoms, with daily symptom recording and a Quality of life questionnaire; assay type: in vivo, human; conditions: 90 mg daily in a capsule, after 2 weeks
Procedure: A person, has for some 20 years suffered from many symptoms, including chronic and severe mental fatigue in spite of 12 h sleep per night, psychological burnout, anxiety, lack of concentration, depressive mood, withdrawal from social situations, irritable bowel symptoms with constipation and/or diarrhea, anxiety, heart palpitations, pressure in the chest, reduced stamina and condition and a reduced sex drive. When asked to evaluate their subjective health status using a Quality of life questionnaire with a 1-10 scale where 1 is the worst possible and 10 is absolutely the best, they regularly marked 1 or 2. Their symptoms were interpreted as caused by depression, and they were treated with 5 different types of anti-depressants for a total of 17 years.
Some time ago, they tested the mercury binding substance iodinated activated charcoal (IAC, custom made at PharmaLundensis according to Example 1). They took 1 g per day of IAC for two weeks, and recorded the symptoms they experienced daily, as well as filling in a Quality of life questionnaire. […] They felt better than they had felt for many years.
After these two weeks, they wanted to clarify if the massive improvement in their health was caused by the IAC. […]

healthy volunteers = conditions: humans, cited from earlier work
[2] = tested on: animals suffering from the effects of iodine toxicity; conditions: animals (chicks) with iodine toxicity; cited from earlier work

| Compound | Quality of life score [1] | improvement of symptoms [1] | no-effect level (healthy volunteers; healthy volunteers) [mg/kg body weight] | tolerability (healthy volunteers) | effect on symptoms of iodine toxicity [2] |
| --- | --- | --- | --- | --- | --- |
| II [elemental iodine] | as bad as when they started taking the iodine capsules | no improvements | – | – | – |
| [Br-].[Na+] [Sodium bromide, sodium bromide] | – | – | 4 | well tolerated | helps to reverse the symptoms |
